How the values were obtained:
[1] = human, in vivo; cited from earlier work
[2] = T3 and T4 concentration in humans with MCT8 deficiency; assay type: in vivo
[3] = tested on: MCT8-mutant (mct82/2) larvae; details: cited from earlier work
[4] = tested on: MCT8-deficient (knockout) mice (Mct8KO); details: cited from earlier work
[5] = tested on: MCT8 mutant (mct8−/−) zebrafish; details: cited from earlier work
[6] = Effect of DITPA on removal of gastrostomy tube (G-tube); assay type: in vivo, human; details: one child who started DITPA while having a G-tube
wild type mice = details: T3-treated wild type mice; cited from earlier work

O=C(O)Cc1cc(I)c(Oc2ccc(O)c(I)c2)c(I)c1 [TRIAC, triiodothyroacetic acid]
effects in pediatric subjects [1]: analog Triac has also been studied in pediatric subjects with positive

O=C(O)CCc1cc(I)c(Oc2ccc(O)cc2)c(I)c1 [DITPA, 3,5-diiodothyropropionic acid]
T3 concentration [2]: reduction | T4 concentration [2]: increase | myelin and axon outgrowth deficiencies [3]: restored the myelin and axon outgrowth deficiencies in mct82/2 larvae | TH deficit [4]: corrects the TH deficit | analysis of TH target genes: thyrotoxic state in the liver [4]: target genes revealed amelioration of the thyrotoxic state in the liver | measurements and other parameters of TH action [4]: SRW101 normalized all measurements and other parameters of TH | thyrotoxic effect in the liver [4]: without causing | hypomyelination in the CNS [5]: TH analogs partially rescued the hypomyelination in the CNS of MCT8 | G-tube [6]: removed | body weight [6]: gained weight

N[C@@H](Cc1cc(I)c(Oc2ccc(O)c(I)c2)c(I)c1)C(=O)O [T3, triiodothyronine]
TEE (total energy expenditure) (wild type mice): mice showed increased food intake and TEE, similar to MCT8KO mice. | food intake (wild type mice): mice showed increased food intake and TEE, similar to MCT8KO mice.

Reference: US20240009156A1, “METHODS AND FORMULATIONS FOR PRENATAL TREATMENT OF ALLAN-HERNDON-DUDLEY SYNDROME” (PriZm, LLC, priority 2022, published 2024)
